Data: PubChem BioAssay AID1963977 (Molecular Pharmacology Branch, DTP, NCI, 2024)

Tested on: 624824-186-R-J3-PDC multicell spheroids, viability
Assay: Anticancer human tumor 624824-186-R-J3-PDC patient-derived colon adenocarcinoma cell line growth inhibition [PI3K]
Details: for IC50: curve of first compound; for viability, T/C: stronger effect = lower value
How it was run: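 Tumor cells grown as multi-cell spheroids with HUVEC endothelial cells and MSC fibroblast-like stroma were treated with targeted agents combined with inavolisib, alpelisib, duvelisib or copanlisib. Doses fell in half-log steps from near clinical Cmax, else from 10 microM. Viability was measured.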

[1] = second compound 0.0316 µM, first compound 0.0316 µM
[2] = second compound 0.0316 µM, first compound 0.1 µM
[3] = second compound 0.0316 µM, first compound 0.316 µM
[4] = second compound 0.0316 µM, first compound 1 µM
[5] = second compound 0.0316 µM, first compound 3.16 µM
[6] = second compound 0.0316 µM, first compound 10 µM
[7] = second compound 0.1 µM, first compound 0.0316 µM
[8] = second compound 0.1 µM, first compound 0.1 µM
[9] = second compound 0.1 µM, first compound 0.316 µM
[10] = second compound 0.1 µM, first compound 1 µM
[11] = second compound 0.1 µM, first compound 3.16 µM
[12] = second compound 0.1 µM, first compound 10 µM
[13] = second compound 0.316 µM, first compound 0.0316 µM
[14] = second compound 0.316 µM, first compound 0.1 µM
[15] = second compound 0.316 µM, first compound 0.316 µM
[16] = second compound 0.316 µM, first compound 1 µM
[17] = second compound 0.316 µM, first compound 3.16 µM
[18] = second compound 0.316 µM, first compound 10 µM
[19] = second compound 1 µM, first compound 0.0316 µM
[20] = second compound 1 µM, first compound 0.1 µM
[21] = second compound 1 µM, first compound 0.316 µM
[22] = second compound 1 µM, first compound 1 µM
[23] = second compound 1 µM, first compound 3.16 µM
[24] = second compound 1 µM, first compound 10 µM
[25] = second compound 3.16 µM, first compound 0.0316 µM
[26] = second compound 3.16 µM, first compound 0.1 µM
[27] = second compound 3.16 µM, first compound 0.316 µM
[28] = second compound 3.16 µM, first compound 1 µM
[29] = second compound 3.16 µM, first compound 3.16 µM
[30] = second compound 3.16 µM, first compound 10 µM
[31] = second compound 10 µM, first compound 0.0316 µM
[32] = second compound 10 µM, first compound 0.1 µM
[33] = second compound 10 µM, first compound 0.316 µM
[34] = second compound 10 µM, first compound 1 µM
[35] = second compound 10 µM, first compound 3.16 µM
[36] = second compound 10 µM, first compound 10 µM
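Further: spheroids exposed to agents for seven days before luminescence read.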
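Wherever viability, T/C is given: luminescent signal used as a stand-in for spheroid viability; percent viability relative to DMSO vehicle control wells taken as 100%.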

C[C@@H](NC(=O)c1ncnc(N)c1Cl)c1ncc(C(=O)Nc2cc(C(F)(F)F)c(Cl)cn2)s1 + Cc1nc(NC(=O)N2CCCC2C(N)=O)sc1-c1ccnc(C(C)(C)C(F)(F)F)c1 was tested, and the IC50 (second compound 0.0316 µM) was greater than 10000 nM, the IC50 (second compound 0.1 µM) was greater than 10000 nM and the IC50 (second compound 0.316 µM) was greater than 10000 nM. For the same compound, the IC50 (second compound 1 µM) was greater than 10000 nM, the IC50 (second compound 3.16 µM) was 4570 nM and the IC50 (second compound 10 µM) was 660 nM. For the same compound, the viability, T/C [1] was 108%, the viability, T/C [2] was 99.1% and the viability, T/C [3] was 102%. The viability, T/C [4] was 97%, the viability, T/C [5] was 98.8% and the viability, T/C [6] was 103%. For the same compound, the viability, T/C [7] was 111%, the viability, T/C [8] was 106% and the viability, T/C [9] was 98.6%. It also gave a viability, T/C [10] of 103%, a viability, T/C [11] of 109% and a viability, T/C [12] of 91%. It also gave a viability, T/C [13] of 101%, a viability, T/C [14] of 114% and a viability, T/C [15] of 99%. It also gave a viability, T/C [16] of 98.6%, a viability, T/C [17] of 106% and a viability, T/C [18] of 72.6%. For the same compound, the viability, T/C [19] was 104%, the viability, T/C [20] was 110% and the viability, T/C [21] was 99.1%. The viability, T/C [22] was 97.8%, the viability, T/C [23] was 86.5% and the viability, T/C [24] was 52.4%. For the same compound, the viability, T/C [25] was 91.5%, the viability, T/C [26] was 85.5% and the viability, T/C [27] was 82.7%. The viability, T/C [28] was 75.8%, the viability, T/C [29] was 59.1% and the viability, T/C [30] was 30.7%. For the same compound, the viability, T/C [31] was 74.1%, the viability, T/C [32] was 76.4% and the viability, T/C [33] was 56%. It also gave a viability, T/C [34] of 46.2%, a viability, T/C [35] of 29.6% and a viability, T/C [36] of 21.5%.

Cn1ncc(Cl)c1-c1cc(C(=O)NC(CN)Cc2cccc(F)c2)sc1Cl (stereo unspecified) + Cc1nc(NC(=O)N2CCCC2C(N)=O)sc1-c1ccnc(C(C)(C)C(F)(F)F)c1 was tested, and the IC50 (second compound 0.0316 µM) was 3910 nM, the IC50 (second compound 0.1 µM) was 2840 nM and the IC50 (second compound 0.316 µM) was 2440 nM. For the same compound, the IC50 (second compound 1 µM) was 2850 nM, the IC50 (second compound 3.16 µM) was 1770 nM and the IC50 (second compound 10 µM) was 933 nM. The viability, T/C [1] was 107%, the viability, T/C [2] was 95.5% and the viability, T/C [3] was 90.2%. It also gave a viability, T/C [4] of 71.7%, a viability, T/C [5] of 52.4% and a viability, T/C [6] of 36.4%. The viability, T/C [7] was 104%, the viability, T/C [8] was 103% and the viability, T/C [9] was 98.8%. For the same compound, the viability, T/C [10] was 70.9%, the viability, T/C [11] was 49.8% and the viability, T/C [12] was 39%. It also gave a viability, T/C [13] of 108%, a viability, T/C [14] of 104% and a viability, T/C [15] of 89.4%. For the same compound, the viability, T/C [16] was 61%, the viability, T/C [17] was 50% and the viability, T/C [18] was 36.1%. For the same compound, the viability, T/C [19] was 102%, the viability, T/C [20] was 87% and the viability, T/C [21] was 82.2%. For the same compound, the viability, T/C [22] was 70.1%, the viability, T/C [23] was 44.9% and the viability, T/C [24] was 30.4%. It also gave a viability, T/C [25] of 76.7%, a viability, T/C [26] of 89% and a viability, T/C [27] of 81.9%. For the same compound, the viability, T/C [28] was 56.7%, the viability, T/C [29] was 42.8% and the viability, T/C [30] was 26.7%. It also gave a viability, T/C [31] of 74.5%, a viability, T/C [32] of 68% and a viability, T/C [33] of 54.8%. For the same compound, the viability, T/C [34] was 53.8%, the viability, T/C [35] was 37.6% and the viability, T/C [36] was 21.6%.

Work on Cn1ncnc1[C@H]1c2n[nH]c(=O)c3cc(F)cc(c23)N[C@@H]1c1ccc(F)cc1 + Cc1nc(NC(=O)N2CCCC2C(N)=O)sc1-c1ccnc(C(C)(C)C(F)(F)F)c1 yielded an IC50 (second compound 0.0316 µM) greater than 100 nM, an IC50 (second compound 0.1 µM) greater than 100 nM and an IC50 (second compound 0.316 µM) greater than 100 nM. It also gave an IC50 (second compound 1 µM) greater than 100 nM, an IC50 (second compound 3.16 µM) greater than 100 nM and an IC50 (second compound 10 µM) greater than 100 nM. For the same compound, the viability, T/C (second compound 0.0316 µM, first compound 0.000316 µM) was 106%, the viability, T/C (second compound 0.0316 µM, first compound 0.001 µM) was 106% and the viability, T/C (second compound 0.0316 µM, first compound 0.00316 µM) was 101%. The viability, T/C (second compound 0.0316 µM, first compound 0.01 µM) was 108%, the viability, T/C [1] was 111% and the viability, T/C [2] was 96.7%. The viability, T/C (second compound 0.1 µM, first compound 0.000316 µM) was 104%, the viability, T/C (second compound 0.1 µM, first compound 0.001 µM) was 108% and the viability, T/C (second compound 0.1 µM, first compound 0.00316 µM) was 111%. It also gave a viability, T/C (second compound 0.1 µM, first compound 0.01 µM) of 101%, a viability, T/C [7] of 101% and a viability, T/C [8] of 102%. It also gave a viability, T/C (second compound 0.316 µM, first compound 0.000316 µM) of 102%, a viability, T/C (second compound 0.316 µM, first compound 0.001 µM) of 115% and a viability, T/C (second compound 0.316 µM, first compound 0.00316 µM) of 102%. It also gave a viability, T/C (second compound 0.316 µM, first compound 0.01 µM) of 103%, a viability, T/C [13] of 105% and a viability, T/C [14] of 98.8%. The viability, T/C (second compound 1 µM, first compound 0.000316 µM) was 96.6%, the viability, T/C (second compound 1 µM, first compound 0.001 µM) was 106% and the viability, T/C (second compound 1 µM, first compound 0.00316 µM) was 110%. The viability, T/C (second compound 1 µM, first compound 0.01 µM) was 83.9%, the viability, T/C [19] was 101% and the viability, T/C [20] was 99%. The viability, T/C (second compound 3.16 µM, first compound 0.000316 µM) was 81%, the viability, T/C (second compound 3.16 µM, first compound 0.001 µM) was 83% and the viability, T/C (second compound 3.16 µM, first compound 0.00316 µM) was 90.8%. It also gave a viability, T/C (second compound 3.16 µM, first compound 0.01 µM) of 87%, a viability, T/C [25] of 91.8% and a viability, T/C [26] of 83.6%. For the same compound, the viability, T/C (second compound 10 µM, first compound 0.000316 µM) was 70%, the viability, T/C (second compound 10 µM, first compound 0.001 µM) was 74.3% and the viability, T/C (second compound 10 µM, first compound 0.00316 µM) was 70.7%. The viability, T/C (second compound 10 µM, first compound 0.01 µM) was 66.7%, the viability, T/C [31] was 67.7% and the viability, T/C [32] was 76.9%.
